Measured values as given in ChEMBL document CHEMBL1201862, “PubChem BioAssay data set” (2004).
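Cultured in 96-well plates, cells were exposed to test compound for 48 hours across five concentrations. The concentration for 50% growth inhibition is given as GI50.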 Calls of active or inactive are those of the source. Rule as the data show it: active = GI50 up to about 1.1 µM and inactive = higher.

Assays:
Assay in all cases: growth of human tumour cells (NCI), 48 h
SF-539 = tested on: SF-539
U-251 = tested on: U-251
A498 = tested on: A498
NCI-H522 = tested on: NCI-H522
UACC-62 = tested on: UACC-62
CAKI-1 = tested on: CAKI-1
SK-OV-3 = tested on: SK-OV-3
SNB-19 = tested on: SNB-19
SF-268 = tested on: SF-268
SNB-75 = tested on: SNB-75
TK-10 = tested on: TK-10
HCT-15 = tested on: HCT-15
SN12C = tested on: SN12C
DU-145 = tested on: DU-145
SF-295 = tested on: SF-295
HCT-116 = tested on: HCT-116
HOP-92 = tested on: HOP-92
Malme-3M = tested on: Malme-3M
SR = tested on: SR
OVCAR-4 = tested on: OVCAR-4

Row | SMILES | GI50 (SF-539) | GI50 (U-251) | GI50 (A498) | GI50 (NCI-H522) | GI50 (UACC-62) | GI50 (CAKI-1) | GI50 (SK-OV-3) | GI50 (SNB-19) | GI50 (SF-268) | GI50 (SNB-75) | GI50 (TK-10) | GI50 (HCT-15) [µM] | GI50 (SN12C) | GI50 (DU-145) | GI50 (SF-295) | GI50 (HCT-116) | GI50 (HOP-92) | GI50 (Malme-3M) | GI50 (SR) | GI50 (OVCAR-4)
1 | N=C(N)CCNC(=O)C1CCC(N)=N1 (stereo not given) | 11.6 µM (inactive) | 7.89 µM (inactive) | 16 µM (inactive) | 23 µM (inactive) | 14 µM (inactive) | 10.6 µM (inactive) | 9.59 µM (inactive) | 6.76 µM (inactive) | 10.3 µM (inactive) | 12.2 µM (inactive) | 22.7 µM (inactive) | 37.9 | 5.27 µM (inactive) | 4.98 µM (inactive) | 18.9 µM (inactive) | 13.1 µM (inactive) | 11.6 µM (inactive) | 7.5 µM (inactive) | 18.5 µM (inactive) | 9.48 µM (inactive)
2 | Cc1c(O)ccc2c(O)c(NC(=O)c3ccc4c(c3)CCC(C)(C)O4)c(=O)oc12 [CYCLONOVOBIOCIC ACID] | > 100 µM (inactive) | > 100 µM (inactive) | 45.8 µM (inactive) | > 100 µM (inactive) | 90.6 µM (inactive) | > 100 µM (inactive) | > 100 µM (inactive) | > 100 µM (inactive) | > 100 µM (inactive) | > 100 µM (inactive) | > 100 µM (inactive) | > 100 | > 100 µM (inactive) | > 100 µM (inactive) | > 100 µM (inactive) | > 100 µM (inactive) | > 100 µM (inactive) | > 100 µM (inactive) | > 100 µM (inactive) | > 100 µM (inactive)
